Experimental findings from patent US12600709B2, “Nonpeptide somatostatin type 5 receptor agonists and uses thereof” (Crinetics Pharmaceuticals, Inc., priority 2019, dated 2026) are described below.

Assay [1] deals with T1, human somatostatin receptor subtype 2 (Homo sapiens, UniProt P30874).
T1 construct: expressed in transfected cells
Nature of the assay: cAMP assay for SST2R (inhibition of cAMP in CHO-K1 cells). It counts as cell-based. As to conditions: Table B; inhibition of cAMP via human SST2 receptor; read-out: SST2 potency. An excerpt: General overview: All five SSTR subtypes are Gi coupled G-protein coupled receptors (GPCRs) that lead to decreases in intracellular cyclic AMP (cAMP) when activated by an agonist. Therefore, measurement of intracellular cAMP levels can be used to assess whether compounds of the invention are agonists of SSTR subtypes (John Kelly, Troy Stevens, W. Joseph Thompson, and Roland Seifert, Current Protocols in Pharmacology, 2005, 2.2.1-2.2). One example of an intracellular cAMP assay is described below.
cAMP Assay Protocol for SST2R:
Four days prior to the assay, 5,000 Chinese hamster ovary cells (CHO-K1, ATCC #CCL-61) stably expressing the human somatostatin receptor subtype 2 are plated in each well of a 96-well tissue culture-treated plate in Ham's F12 growth media (ThermoFisher #10-080-CM) supplemented with 10% donor bovine serum (Gemini Bio-Products #100-506), 100 U/mL penicillin; 100 μg/mL streptomycin; 2 mM L-glutamine (Gemini Bio-Products #400-110) and 0.2 mg/mL hygromycin B (GoldBio #31282-04-9). The cells are cultured at 37° C., 5% CO2 and 95% humidity. On the day of the assay, the media is aspirated and the cells are treated with 50 μL of 1.6 μM NKH477 (Sigma #N3290) plus various dilutions of compounds of the invention in assay buffer [1× Hank's Balanced Salt Solution (ThermoFisher #SH3058802), 0.5 mM HEPES pH 7.4, 0.1% bovine serum albumin, 0.2 mM 3-Isobutyl-1-methylxanthine (IBMX, VWR #200002-790)]. The cells are incubated for 20 minutes at 37° C. […] The cells are treated with 50 μL of lysis buffer (HRTF cAMP kit, Cisbio). The lysate is transferred to 384-well plates and cAMP detection and visualization antibodies are added and incubated for 1-24 hours at room temperature. The time-resolved fluorescent signal is read with a Tecan M1000Pro multiplate reader. The intracellular cAMP concentrations are calculated by regression to a standard curve and are plotted vs. the concentration of the compounds of the invention and the EC50 of the compounds are calculated using standard methods. All data manipulations are in GraphPad Prism v6 or v7.
In general terms: Changes in cAMP serve as a functional read-out for many G protein-coupled receptors.

In assay [2] the target is T2, human somatostatin receptor subtype 5 (Homo sapiens, UniProt P35346).
T2 construct: expressed in transfected cells
Nature of the assay: cAMP assay for SST5R (inhibition of cAMP in CHO-K1 cells). It counts as cell-based. The following applies: for EC50: inhibition of cAMP via human SST5 receptor, read-out: SST5 potency; for Fold selectivity for SST5 vs SST2: class symbols, SST5 receptor over SST2 receptor. The gist of the method:
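CHO-K1 cells stably expressing human SSTR5 were treated 20 min at 37 °C with compounds plus 1.6 μM NKH477 in HBSS, 0.5 mM HEPES pH 7.4, 0.1% BSA, 0.2 mM IBMX. Lysate cAMP measured by HTRF against a standard curve; EC50 from cAMP-versus-concentration plots.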

Like-named read-outs stand apart in the source and are kept apart here.

T1 sequence (P30874 whole entry): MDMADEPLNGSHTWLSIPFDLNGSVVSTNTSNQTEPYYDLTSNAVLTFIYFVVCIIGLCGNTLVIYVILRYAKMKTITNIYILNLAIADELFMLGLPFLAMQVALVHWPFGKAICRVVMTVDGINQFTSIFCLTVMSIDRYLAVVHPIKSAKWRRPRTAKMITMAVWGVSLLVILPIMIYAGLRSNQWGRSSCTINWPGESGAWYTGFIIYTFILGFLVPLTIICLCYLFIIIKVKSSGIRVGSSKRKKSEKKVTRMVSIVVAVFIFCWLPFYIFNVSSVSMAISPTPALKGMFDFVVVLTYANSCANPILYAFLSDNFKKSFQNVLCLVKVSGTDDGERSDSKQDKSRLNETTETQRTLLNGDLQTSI
T2 sequence (P35346 whole entry): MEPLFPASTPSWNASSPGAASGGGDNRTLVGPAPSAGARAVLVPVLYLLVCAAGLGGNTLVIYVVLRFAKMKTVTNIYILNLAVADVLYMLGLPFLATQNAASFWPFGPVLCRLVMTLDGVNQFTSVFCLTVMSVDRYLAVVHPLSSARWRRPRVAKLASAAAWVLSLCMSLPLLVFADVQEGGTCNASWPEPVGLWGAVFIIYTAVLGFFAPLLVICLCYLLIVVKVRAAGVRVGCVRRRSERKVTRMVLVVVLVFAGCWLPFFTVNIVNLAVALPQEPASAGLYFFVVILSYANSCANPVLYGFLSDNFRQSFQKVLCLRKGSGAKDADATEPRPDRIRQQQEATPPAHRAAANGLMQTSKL

As for “4-[(3S)-3-amino-3-methylpyrrolidin-1-yl]-5-(3-cyano-5-methoxyphenyl)-N-[(1S)-1-cyclopropylethyl]-6-methylpyridine-3-carboxamide [1-280]”, the EC50 in assay [1] was 0.1 to 1 µM; in assay [2] (Table A), under 0.01 µM; in assay [2] (Table B), under 0.01 µM. Further, in assay [2] (Table B), the “Fold selectivity for SST5 vs SST2” value is given as “+++ (+++=>500)”.

`Cc1cc(C)cc(NC(=O)c2cncc(-c3cc(C)cc(C)c3)c2N2CC[C@@H](N)C2)c1` (single isomer, unassigned) [1-2]: the EC50 in assay [1] was under 0.01 µM; in assay [2] (Table A) it was 0.01 to 0.1 µM; in assay [2] (Table B), 0.01 to 0.1 µM.

With `Cc1cc(C)cc(NC(=O)c2cncc(-c3cc(C)cc(C)c3)c2N2CC[C@H](N)C2)c1` [1-1, 4-[(3S)-3-aminopyrrolidin-1-yl]-N,5-bis(3,5-dimethylphenyl)pyridine-3-carboxamide], the EC50 in assay [1] is 0.01 to 0.1 µM; in assay [2] (Table A), under 0.01 µM; in assay [2] (Table B), under 0.01 µM. Moreover, in assay [2] (Table B), the “Fold selectivity for SST5 vs SST2” value is “++ (++=100 to 499)”.

Consider `Cc1cc(C)cc(-c2cncc(C(=O)Nc3cc(F)cc(Cl)c3)c2N2CC[C@H](N)C2)c1` [1-3, 4-[(3 S)-3-aminopyrrolidin-1-yl]-N-(3-chloro-5-fluorophenyl)-5-(3,5-dimethylphenyl)pyridine-3-carboxamide], for which the EC50 is 0.1 to 1 µM in assay [1], under 0.01 µM in assay [2] (Table A) and under 0.01 µM in assay [2] (Table B). Also, the “Fold selectivity for SST5 vs SST2” value in assay [2] (Table B) is “+ (+=10 to 99)”.

Consider `C[C@]1(N)CCN(c2c(C(=O)Nc3ccccc3F)cncc2-c2ccc(F)c(C#N)c2)C1` [1-4, 4-[(3S)-3-amino-3-methylpyrrolidin-1-yl]-5-(3-cyano-4-fluorophenyl)-N-(2-fluorophenyl)pyridine-3-carboxamide], for which the EC50 in assay [1] was 0.1 to 1 µM; in assay [2] (Table A), under 0.01 µM; in assay [2] (Table B) it was under 0.01 µM. Moreover, the “Fold selectivity for SST5 vs SST2” value in assay [2] (Table B) is on record as “++ (++=100 to 499)”.

Consider `Cc1cccc(NC(=O)c2cncc(-c3ccnc(C#N)c3)c2N2CC[C@](C)(N)C2)c1` [1-5, 4-[(3S)-3-amino-3-methylpyrrolidin-1-yl]-2′-cyano-N-(3-methylphenyl)-[3,4′-bipyridine]-5-carboxamide], for which the EC50 in assay [1] was 0.1 to 1 µM; in assay [2] (Table A), under 0.01 µM; in assay [2] (Table B), under 0.01 µM. In assay [2] (Table B), the “Fold selectivity for SST5 vs SST2” value is listed as “+++ (+++=>500)”.

In the case of `Cc1cc(C)cc(NC(=O)c2cncc(-c3ccnc(C)c3)c2N2CC[C@](C)(N)C2)c1` [1-6, 4-[(3S)-3-amino-3-methylpyrrolidin-1-yl]-N-(3,5-dimethylphenyl)-2′-methyl-[3,4′-bipyridine]-5-carboxamide], the EC50 in assay [1] is 0.01 to 0.1 µM; in assay [2] (Table A), under 0.01 µM; in assay [2] (Table B), under 0.01 µM. In assay [2] (Table B), the “Fold selectivity for SST5 vs SST2” value is on record as “++ (++=100 to 499)”.

In the case of `C[C@]1(N)CCN(c2c(C(=O)NC3CCC(F)(F)CC3)cncc2-c2cccc(C#N)c2)C1` [1-10, 4-[(3S)-3-amino-3-methylpyrrolidin-1-yl]-5-(3-cyanophenyl)-N-(4,4-difluorocyclohexyl)pyridine-3-carboxamide], the EC50 was over 1 µM in assay [1], 0.01 to 0.1 µM in assay [2] (Table A) and 0.01 to 0.1 µM in assay [2] (Table B). For the same compound, in assay [2] (Table B), the “Fold selectivity for SST5 vs SST2” value is “++ (++=100 to 499)”.

As for `Cc1cc(C)cc(-c2cncc(C(=O)NC3CCCC(C)(C)C3)c2N2CC[C@](C)(N)C2)c1` (stereo partly drawn) [1-11, 4-[(3S)-3-amino-3-methylpyrrolidin-1-yl]-N-(3,3-dimethylcyclohexyl)-5-(3,5-dimethylphenyl)pyridine-3-carboxamide], the EC50 in assay [1] was over 1 µM; in assay [2] (Table A) it was under 0.01 µM; in assay [2] (Table B), under 0.01 µM. Besides, in assay [2] (Table B), the “Fold selectivity for SST5 vs SST2” value is recorded as “+++ (+++=>500)”.

In the case of `Cc1cc(C)cc(-c2cncc(C(=O)NC3CCC(F)(F)CC3)c2N2CC[C@](C)(N)C2)c1` [1-12, 4-[(3S)-3-amino-3-methylpyrrolidin-1-yl]-N-(4,4-difluorocyclohexyl)-5-(3,5-dimethylphenyl)pyridine-3-carboxamide], the EC50 was 0.1 to 1 µM in assay [1], under 0.01 µM in assay [2] (Table A) and under 0.01 µM in assay [2] (Table B). The “Fold selectivity for SST5 vs SST2” value in assay [2] (Table B) was “+++ (+++=>500)”.

As to `Cc1cc(F)cc(-c2cncc(C(=O)NC3CCC(F)(F)CC3)c2N2CC[C@](C)(N)C2)c1` [1-13, 4-[(3S)-3-amino-3-methylpyrrolidin-1-yl]-N-(4,4-difluorocyclohexyl)-5-(3-fluoro-5-methylphenyl)pyridine-3-carboxamide], the EC50 in assay [1] is 0.1 to 1 µM; in assay [2] (Table A), under 0.01 µM; in assay [2] (Table B), under 0.01 µM. The “Fold selectivity for SST5 vs SST2” value in assay [2] (Table B) was “+++ (+++=>500)”.

Take `C[C@]1(N)CCN(c2c(C(=O)NC3CCC(F)(F)CC3)cncc2-c2cc(F)cc(F)c2)C1` [1-16, 4-[(3S)-3-amino-3-methylpyrrolidin-1-yl]-N-(4,4-difluorocyclohexyl)-5-(3,5-difluorophenyl)pyridine-3-carboxamide]: the EC50 was 0.1 to 1 µM in assay [1], under 0.01 µM in assay [2] (Table A) and under 0.01 µM in assay [2] (Table B). Further, the “Fold selectivity for SST5 vs SST2” value in assay [2] (Table B) is recorded as “+++ (+++=>500)”.

Consider `Cc1cc(F)cc(-c2cncc(C(=O)NC3CCc4ccccc43)c2N2CC[C@](C)(N)C2)c1` (stereo partly drawn) [1-17, 4-[(3S)-3-amino-3-methylpyrrolidin-1-yl]-N-(2,3-dihydro-1H-inden-1-yl)-5-(3-fluoro-5-methylphenyl)pyridine-3-carboxamide], for which the EC50 in assay [1] was 0.1 to 1 µM; in assay [2] (Table A), under 0.01 µM; in assay [2] (Table B), under 0.01 µM. Also, in assay [2] (Table B), the “Fold selectivity for SST5 vs SST2” value was “++ (++=100 to 499)”.

`CCC1(NC(=O)c2cncc(-c3cc(C)cc(F)c3)c2N2CC[C@](C)(N)C2)CCC1` [1-19, 4-[(3S)-3-amino-3-methylpyrrolidin-1-yl]-N-(1-ethylcyclobutyl)-5-(3-fluoro-5-methylphenyl)pyridine-3-carboxamide]: the values for the EC50 in assay [1], in assay [2] (Table A) and in assay [2] (Table B) were 0.1 to 1 µM, under 0.01 µM and under 0.01 µM, respectively. In assay [2] (Table B), the “Fold selectivity for SST5 vs SST2” value is given as “++ (++=100 to 499)”.

For `C[C@]1(N)CCN(c2c(C(=O)NC3CCC(F)(F)CC3)cncc2-c2cc(F)c(F)c(F)c2)C1` [1-20, 4-[(3S)-3-amino-3-methylpyrrolidin-1-yl]-N-(4,4-difluorocyclohexyl)-5-(3,4,5-trifluorophenyl)pyridine-3-carboxamide], the values for the EC50 in assay [1], in assay [2] (Table A) and in assay [2] (Table B) were 0.1 to 1 µM, under 0.01 µM and under 0.01 µM, respectively. In addition, the “Fold selectivity for SST5 vs SST2” value in assay [2] (Table B) is “+++ (+++=>500)”.

`C[C@]1(N)CCN(c2c(C(=O)NC34CC(C3)C4)cncc2-c2cc(F)cc(F)c2)C1` [1-21, 4-[(3S)-3-amino-3-methylpyrrolidin-1-yl]-N-{bicyclo[1.1.1]pentan-1-yl}-5-(3,5-difluorophenyl)pyridine-3-carboxamide]: the EC50 in assay [1] is 0.01 to 0.1 µM; in assay [2] (Table A), under 0.01 µM; in assay [2] (Table B), under 0.01 µM. Besides, the “Fold selectivity for SST5 vs SST2” value in assay [2] (Table B) is recorded as “++ (++=100 to 499)”.

In the case of `CC1(C)CC(NC(=O)c2cncc(-c3cc(F)cc(F)c3)c2N2CC[C@](C)(N)C2)C1` [1-22, 4-[(3S)-3-amino-3-methylpyrrolidin-1-yl]-5-(3,5-difluorophenyl)-N-(3,3-dimethylcyclobutyl)pyridine-3-carboxamide], the EC50 in assay [1] was 0.1 to 1 µM; in assay [2] (Table A) it was under 0.01 µM; in assay [2] (Table B), under 0.01 µM. The “Fold selectivity for SST5 vs SST2” value in assay [2] (Table B) was “++ (++=100 to 499)”.

As for `Cc1cc(F)cc(-c2cncc(C(=O)NC(C)C3CC3)c2N2CC[C@](C)(N)C2)c1` (stereo partly drawn) [1-24, 4-[(3S)-3-amino-3-methylpyrrolidin-1-yl]-N-(1-cyclopropylethyl)-5-(3-fluoro-5-methylphenyl)pyridine-3-carboxamide], the EC50 in assay [1] is 0.01 to 0.1 µM; in assay [2] (Table A) it was under 0.01 µM; in assay [2] (Table B), under 0.01 µM. The “Fold selectivity for SST5 vs SST2” value in assay [2] (Table B) was “+++ (+++=>500)”.

On to `Cc1cc(F)cc(-c2cncc(C(=O)NC(C3CC3)C3CC3)c2N2CC[C@](C)(N)C2)c1` [1-25, 4-[(3S)-3-amino-3-methylpyrrolidin-1-yl]-N-(dicyclopropylmethyl)-5-(3-fluoro-5-methylphenyl)pyridine-3-carboxamide], for which the EC50 is 0.1 to 1 µM in assay [1], under 0.01 µM in assay [2] (Table A) and under 0.01 µM in assay [2] (Table B). Besides, the “Fold selectivity for SST5 vs SST2” value in assay [2] (Table B) is “+++ (+++=>500)”.
